Like-named read-outs stand apart in the source and are kept apart here.
Assays:
Assay type in all cases: physicochemical
[1] = Weight loss after 3 hours at 130° C.
Method: 12.0 g of pentaerythritol, 42.8 g of phenylglyoxylic acid and 0.27 g of sulfuric acid are suspended in 17.8 g of methylcyclohexane and the suspension is heated under reflux. The water of esterification is removed via a separating vessel, so that the esterification reaction is at an end after 8 hours. Distillation of the methylcyclohexane leaves a solid melt (acid number 25 mg KOH/g). The weight loss after 3 hours at 130° C. is 7.3%.
21.4 g of 1,4-butanediol diglycidyl ether (Araldit DY026) are mixed with 30 g of phenylglyoxylic acid in the presence of 0.5 g of tetrabutylammonium bromide. The mixture is cautiously heated to 103° C. and is held at this temperature for 5 hours until the acid number has fallen to 7.2 mg KOH/g. The product is a highly viscous liquid (153.6 Pas). The weight loss after 3 hours at 130° C. is 0.7%.
28.84 g of 1,4-bis(hydroxymethyl)cyclohexane, 72.23 g of methyl phenylglyoxylate and 0.82 g of dibutoxydibutyltin are melted over 180° C. in a reaction flask and methanol is distilled off via a column. After virtually all of the theoretical amount of methanol has passed over, the residue is concentrated on a rotary evaporator, the concentrate is digested in ethanol, and the resulting solid is filtered off with suction. The IR and H-NMR spectra correspond to the expected structure. The melting point is 92° C. The weight loss after 3 hours at 130° C. is 0.5%.

[2] = Solubility in hexanediol diacrylate (HDDA); parameters: key: sol = soluble; insol = insoluble
Description: a) Solubility in hexanediol diacrylate (HDDA)

[3] = Solubility in an aliphatic urethane acrylate; settings: 2%
Method: b) The solubility of 2% each of 1,4-cyclohexanedimethanol di(phenylglyoxylate) and 4,4′-isopropylidenedicyclohexanol di(phenylglyoxylate) in an aliphatic urethane acrylate was also tested.

[4] = Solubility in Laromer LR 8987
Description: Using a box-type coating bar, a glass plate was coated with this formulation so as to form a film having a thickness of 50 μm or 100 μm. This film was subsequently cured in an IST belt exposure unit at 10 m/min under air.
4 parts of 4,4′-isopropylidenedicyclohexanol di(phenylglyoxylate) [hydrogenated bisphenol-A-di(phenylglyoxylate)] were insoluble in 96 parts of Laromer LR 8987. Therefore, radiation curing was not possible.
However, the solubility was sufficient to prepare and cure a film as described above.

Solubility in hexanediol diacrylate (HDDA) ([2]; 3%) | solubility in Laromer LR 8987 [4] | Molecule | weight loss after 3 hours at 130° C. [1] [%] | Solubility in hexanediol diacrylate (HDDA) ([2]; 1%) | Solubility in hexanediol diacrylate (HDDA) ([2]; 2%) | solubility in an aliphatic urethane acrylate [3] | solubility in Laromer LR 8987 ([4]; 4 parts in 96 parts of Laromer LR 8987 (mixture of hexanediol diacrylate and an aliphatic urethane acrylate))
– | – | 1,4-Butanediol Diglycidyl Ether Diglyoxylate [Example 2] | 0.7 | – | – | – | –
– | – | 4,4′-isopropylidenedicyclohexanol di(phenylglyoxylate) | – | sol | in- | insoluble or did not dissolve completely | insoluble
in- | did not dissolve completely | O=C(OC1CCC(OC(=O)C(=O)c2ccccc2)CC1)C(=O)c1ccccc1 (stereo not shown) [1,4-cyclohexanediol di(phenylglyoxylate)] | – | sol | sol | – | –
– | – | O=CC(=O)OCC(COC(=O)C=O)(COC(=O)C=O)COC(=O)C=O [Example 1, Pentaerythritol Tetraglyoxylate] | 7.3 | – | – | – | –

Reference: patent publication US6562464B1, “Utilization of phenylglyoxalic acid esters as photoinitiators” (BASF Aktiengesellschaft, priority 1999, dated 2003)
